According to patent US11278526B2, “Compounds and methods for treating lupus” (RECEPTOS LLC, priority 2016, dated 2022):

How the values were obtained:
Assay type in all cases: in vivo
S1P1R = biological target: T1, S1P1R (Mus musculus, UniProt O08530); assay: S1P1R cell surface expression on splenic CD4+ T cells by flow cytometry; settings: NZBWF1 mice, splenocytes at termination; 0.3, 1.0, 3.0 mg/kg PO QD
T1 construct: from tissue; host or cells: spleen
Description: S1P1R is expressed on T and B lymphocytes and is the target for modulation by compound 5. Following agonism of the receptor by compound 5, the receptor is internalized and degraded. To determine whether internalization is occurring in T cells following compound dosing in vivo, both naïve and activated CD4+ T cells were examined for cell surface expression of S1P1R. At termination, spleens were harvested and splenocytes isolated and analyzed for immune cell populations by antibody staining and flow cytometry. S1P1R expression was measured on both activated CD4+ T cells (CD3+CD4+CD44+CD62L−) and naïve T cells (CD3+CD4+CD44−CD62L+).

NZBWF1 mice = assay: Tertiary Lymphatic Tissue (TLT) scoring in kidney histology
Description: To directly assay disease progression, left kidney histology was observed and sections were stained using H&E (left kidney fixed in 4% PFA prior to staining for infiltrating PMN, lymphocytes, and TLTs) or PAS (for analysis of glomerular glycogen and glycoproteins). No neutrophils were observed. The number of aggregates was counted per section.

profibrotic genes = assay: Kidney mRNA levels of profibrotic genes; settings: NZBWF1 mice
Description: As explained above, SLE is characterized by aberrant recognition of healthy “self” tissue as antigenic. The resulting immune response is characterized by inflammation. To measure SLE status, mRNA levels were measured for an array of inflammatory and immune response genes from kidneys collected at termination or week 23 (naïve) and stored in RNAlater (n=5). mRNA was quantified using QuantiGene Multiplex Assay.
SLE-related inflammation can lead to fibrotic scarring. mRNA levels were measured for an array of profibrotic genes. […] Expression signals of MMP10, IL-2, IL-6, and TNF were also measured, but were below LLOQ (data not shown).

T1 sequence (O08530 whole entry): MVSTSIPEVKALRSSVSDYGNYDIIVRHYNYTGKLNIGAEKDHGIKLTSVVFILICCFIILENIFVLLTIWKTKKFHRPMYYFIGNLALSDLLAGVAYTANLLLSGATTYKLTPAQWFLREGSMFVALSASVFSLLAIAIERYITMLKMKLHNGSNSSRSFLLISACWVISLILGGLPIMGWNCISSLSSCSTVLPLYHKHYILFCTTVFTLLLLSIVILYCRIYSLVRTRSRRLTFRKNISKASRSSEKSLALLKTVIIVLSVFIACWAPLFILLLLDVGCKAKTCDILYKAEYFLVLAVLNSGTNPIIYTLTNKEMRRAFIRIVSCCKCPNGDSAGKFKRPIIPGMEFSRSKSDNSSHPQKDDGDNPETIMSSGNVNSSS

Structure (SMILES) | S1P1R expression on activated CD4+ T cells (CD3+CD4+CD44+CD62L−) (S1P1R) | S1P1R expression on naïve CD4+ T cells (CD3+CD4+CD44−CD62L+) (S1P1R) | Kidney TLT scores compared to naïve mice (NZBWF1 mice; 1.0 mg/kg or 3.0 mg/kg PO QD) | Kidney TLT scores relative to vehicle (NZBWF1 mice; 0.3, 1.0, 3.0 mg/kg PO QD, p<0.05, lesser degree than cyclophosphamide) | mRNA level of Cdcd88a/Girdin relative to control (profibrotic genes; 3 mpk PO) | mRNA level of LOXL1 relative to control (profibrotic genes; 3 mpk PO) | mRNA level of Lipocalin 2 relative to control (profibrotic genes; 3 mpk PO) | mRNA level of TGFβ2 relative to control (profibrotic genes; 3 mpk PO) | mRNA level of TIMP1 relative to control (profibrotic genes; 3 mpk PO) | mRNA level of Transgelin relative to control (profibrotic genes; 3 mpk PO) | IFGBP2 mRNA levels (profibrotic genes; following administration of compound 148)
CC(C)Oc1ccc(-c2nc(-c3cccc4c3CC[C@@H]4NCCO)no2)cc1C#N [compound 5, (S)-5-(3-(1-(2-hydroxyethylamino)-2,3-dihydro-1H-inden-4-yl)-1,2,4-oxadiazol-5-yl)-2-isopropoxy benzonitrile] | reduced in a dose-dependent manner | reduced in a dose-dependent manner |  |  |  |  |  |  |  |  | 
CC(C)Oc1ccc(-c2nc(-c3cccc4c3CC[C@@H]4N)no2)cc1C#N [compound 148, (S)-5-(3-(1-amino-2,3-dihydro-1H-inden-4-yl)-1,2,4-oxadiazol-5-yl)-2-isopropoxy-benzonitrile] |  |  | TLT scores similar to naïve mice | significantly reduced TLT scores relative to vehicle | decreased levels | decreased levels | decreased levels | decreased levels | decreased levels | decreased levels | appeared to increase somewhat
